From the NIST ThermoML archive (doi:10.1021/je900743e)

What was measured:
[1] = Crystal; visual observation
[2] = wn = mass fraction of the nth substance listed; settings: 101 kPa, Liquid; for viscosity: Capillary tube (Ostwald / Ubbelohde) method; for mass density: Pycnometric method

[Br-].[Br-].c1cc[n+](CCCCC[n+]2ccccc2)cc1 [1,1'-(pentane-1,5-diyl)-bis(pyridinium) dibromide]
Settings | Normal melting temperature [°C]
[1] | 198.00

CCO [ethanol] + O
[2]
Settings | mass density, w1 = 0.1 [kg/m3] | mass density, w1 = 0.2 [kg/m3] | mass density, w1 = 0.3 [kg/m3] | mass density, w1 = 0.4 [kg/m3] | mass density, w1 = 0.5 [kg/m3] | viscosity, w1 = 0.1 [mPa·s] | viscosity, w1 = 0.2 [mPa·s] | viscosity, w1 = 0.3 [mPa·s] | viscosity, w1 = 0.4 [mPa·s] | viscosity, w1 = 0.5 [mPa·s]
293.15 K | 981.8 | 968.2 | 953.6 | 935.5 | 913.9 | 1.538 | 2.183 | 2.701 | 2.91 | 2.87
303.15 K | 979 | 964.1 | 947.4 | 927.2 | 905.6 | 1.16 | 1.553 | 1.87 | 2.02 | 2.022
313.15 K | 974.6 | 958.7 | 940.3 | 919.8 | 897.6 | 0.9068 | 1.16 | 1.368 | 1.482 | 1.499
